Results as given in the NIST ThermoML archive (doi:10.1016/j.jct.2014.06.004).

Experiments:
[1] = 100 kPa, Liquid; for speed of sound: Frequency=3 MHz, Sing-around technique in a fixed-path interferometer; for mass density: Vibrating tube method
[2] = refractive index (Na D-line) (dimensionless); conditions: 101.33 kPa, Liquid, Standard Abbe refractometry
[3] = refractive index (Na D-line) (dimensionless); xn = mol fraction of the nth substance listed; conditions: 100 kPa, Liquid, Standard Abbe refractometry
[4] = xn = mol fraction of the nth substance listed; conditions: 100 kPa, Liquid; for speed of sound: Frequency=3 MHz, Sing-around technique in a fixed-path interferometer; for mass density: Vibrating tube method

CCC(=O)O [propanoic acid]
Conditions	mass density, [1] [kg/m3]	refractive index, [2]	speed of sound, [1] [m/s]
293.15 K	993.9	1.3865	1166
298.15 K	988.5	1.3848	1147
303.15 K	983.1	1.383	1128
308.15 K	977.7	1.3811	1109
313.15 K	972.3	1.3792	1090

CCCC(=O)O [butanoic acid]
Conditions	mass density, [1] [kg/m3]	refractive index, [2]	speed of sound, [1] [m/s]
293.15 K	957.8	1.3983	1196
298.15 K	952.8	1.3963	1177
303.15 K	947.9	1.3942	1158
308.15 K	942.9	1.3922	1139
313.15 K	938.1	1.3901	1121

CCC(=O)O [propanoic acid] + CCCCCCC(=O)O
x2 = 0
Conditions	mass density, [4] [kg/m3]	refractive index, [3]	speed of sound, [4] [m/s]
293.15 K	993.9	1.3865	1166
298.15 K	988.5	1.3848	1147
303.15 K	983.1	1.383	1128
308.15 K	977.7	1.3811	1109
313.15 K	972.3	1.3792	1090

CCCC(=O)O [butanoic acid] + CCCCCCC(=O)O
x2 = 0
Conditions	mass density, [4] [kg/m3]	refractive index, [3]	speed of sound, [4] [m/s]
293.15 K	957.8	1.3983	1196
298.15 K	952.8	1.3963	1177
303.15 K	947.9	1.3942	1158
308.15 K	942.9	1.3922	1139
313.15 K	938.1	1.3901	1121

CCOC(=O)OCC [diethyl carbonate] + CCO
298.15 K
Conditions	mass density, [4] [kg/m3]	refractive index, [3]	speed of sound, [4] [m/s]
x1 = 0.0415	800.3	1.3614	1145
x1 = 0.0943	817.7	1.3635	1147
x1 = 0.1932	845.9	1.367	1150
x1 = 0.2929	869.6	1.3698	1154
x1 = 0.3938	890	1.3724	1156
x1 = 0.4965	907.8	1.3746	1159
x1 = 0.597	923	1.3765	1162
x1 = 0.6924	935.7	1.3781	1166
x1 = 0.7911	947.6	1.3796	1169
x1 = 0.899	959.3	1.3811	1173
x1 = 0.9413	963.6	1.3817	1175
x1 = 1	969.3	1.3825	1177

CCO [ethanol] + CCOC(=O)OCC
298.15 K, x2 = 0
Conditions	mass density [kg/m3]	refractive index	speed of sound [m/s]
[3]	–	1.3594	–
[4]	785.2	–	1142

CCO [ethanol]
298.15 K
Conditions	mass density [kg/m3]	refractive index	speed of sound [m/s]
[1]	785.2	–	1142
[2]	–	1.3594	–

CCOC(=O)OCC [diethyl carbonate]
298.15 K
Conditions	mass density [kg/m3]	refractive index	speed of sound [m/s]
[1]	969.3	–	1177
[2]	–	1.3825	–

CCCCCCC(=O)O [heptanoic acid]
Conditions	mass density, [1] [kg/m3]	refractive index, [2]	speed of sound, [1] [m/s]
293.15 K	917.7	1.4234	1295
298.15 K	913.5	1.4214	1278
303.15 K	909.3	1.4194	1260
308.15 K	905.1	1.4173	1242
313.15 K	900.9	1.4153	1225
